Like-named read-outs stand apart in the source and are kept apart here. One block for each compound: values may come before it.
Legend:
[1] = biological target: T1, HDAC6 (Homo sapiens, UniProt Q9UBN7); assay: in vitro activity-based HDAC assay; type: biochemical; conditions: ranges given; read-out: IC50 for HDAC6
T1 sequence (Q9UBN7 1-1215): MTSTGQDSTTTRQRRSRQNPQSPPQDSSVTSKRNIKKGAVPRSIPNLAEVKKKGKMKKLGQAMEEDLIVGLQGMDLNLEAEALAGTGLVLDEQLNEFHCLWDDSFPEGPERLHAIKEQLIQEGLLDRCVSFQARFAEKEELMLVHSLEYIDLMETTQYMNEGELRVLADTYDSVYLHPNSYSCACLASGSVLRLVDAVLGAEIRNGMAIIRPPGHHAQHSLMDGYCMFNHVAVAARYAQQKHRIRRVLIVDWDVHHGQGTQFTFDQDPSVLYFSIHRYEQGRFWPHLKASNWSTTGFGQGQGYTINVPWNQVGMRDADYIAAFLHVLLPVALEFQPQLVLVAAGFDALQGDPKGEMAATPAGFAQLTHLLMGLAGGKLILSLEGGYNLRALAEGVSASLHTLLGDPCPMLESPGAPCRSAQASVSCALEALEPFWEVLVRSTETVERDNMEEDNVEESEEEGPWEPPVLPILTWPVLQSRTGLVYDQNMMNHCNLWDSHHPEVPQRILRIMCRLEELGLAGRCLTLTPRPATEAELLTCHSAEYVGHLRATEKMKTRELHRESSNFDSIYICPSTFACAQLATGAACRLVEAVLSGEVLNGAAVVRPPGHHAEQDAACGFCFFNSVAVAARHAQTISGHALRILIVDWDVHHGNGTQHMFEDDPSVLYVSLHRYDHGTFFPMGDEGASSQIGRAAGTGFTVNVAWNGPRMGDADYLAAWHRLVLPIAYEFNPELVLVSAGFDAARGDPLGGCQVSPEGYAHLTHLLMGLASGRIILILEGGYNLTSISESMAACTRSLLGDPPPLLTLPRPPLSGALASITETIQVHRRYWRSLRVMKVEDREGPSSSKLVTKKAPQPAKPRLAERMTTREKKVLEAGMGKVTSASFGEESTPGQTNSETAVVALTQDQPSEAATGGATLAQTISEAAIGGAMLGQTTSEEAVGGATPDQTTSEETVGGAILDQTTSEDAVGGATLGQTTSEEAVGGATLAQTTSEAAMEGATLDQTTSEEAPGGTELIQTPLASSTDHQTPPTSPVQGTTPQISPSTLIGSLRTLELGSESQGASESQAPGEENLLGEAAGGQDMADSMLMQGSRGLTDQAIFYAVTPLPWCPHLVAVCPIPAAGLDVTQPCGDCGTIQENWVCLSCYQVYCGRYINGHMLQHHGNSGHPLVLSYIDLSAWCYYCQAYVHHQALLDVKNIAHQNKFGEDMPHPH
Description: The exemplary compounds of Formula I and structurally related compounds were synthesized to assess their structure-activity relationship. […] The IC50 values for each exemplary compound were used to calculate the selectivity of the exemplary compounds for Formula I to HDAC6. The selectivity of each exemplary compound for HDAC6 was determined from examining the potency of HDAC6 in relation to the highest binding affinity of the other HDAC isoforms tested.

[2] = tested on: MOLM-13; assay: Cytotoxicity in cell lines; type: cell-based; conditions: Homo sapiens, MOLM-13, read-out: IC50 MOLM-13
Description: (§1) The cytotoxicity of exemplary compounds of the application was tested in multiple cell lines including MV-4-11, MOLM-13, MCF-7, MRC9, K562 and MM.1S. The therapeutic index was evaluated by determining the toxicity of the exemplary compounds in healthy cell lines including fibroblasts and HUVEC.

[3] = tested on: MV-4-11; assay: Cytotoxicity in cell lines; type: cell-based; conditions: read-out: IC50 MV-411
Description: as §1

[4] = Plasma stability by LC-MS; type: in vitro ADME; conditions: mouse plasma
Description: The stability of select compounds of the application in plasma was assessed quantitatively through LC-MS and the results are shown in Table 6.

IC50 [1]: 10 to 30 nM
SMILES: O=C(/C=C/c1ccc(CNC(=O)c2c(F)c(F)c(F)c(F)c2F)cc1)NO [Compound I-81, (E)-2,3,4,5,6-pentafluoro-N-(4-(3-(hydroxyamino)-3-oxoprop-1-en-1-yl)benzyl)benzamide]

SMILES: O=C(NO)c1ccc(CN(Cc2ccc(F)cc2)S(=O)(=O)c2c(F)c(F)c(F)c(F)c2F)cc1 [Compound I-9, N-hydroxy-4-((2,3,4,5,6-pentafluoro-N-(4-fluorobenzyl)phenylsulfonamido)methyl)benzamide]
IC50 ([2]; Table 4): 5200 nM

IC50 [1]: 10 to 30 nM
SMILES: CC(c1ccc(F)cc1)N(Cc1ccc(/C=C/C(=O)NO)cc1)S(=O)(=O)c1c(F)c(F)c(F)c(F)c1F (stereo not shown) [Compound I-60, (E)-N-hydroxy-3-(4-((2,3,4,5,6-pentafluoro-N-(1-(4-fluorophenyl)ethyl)phenylsulfonamido)methyl)phenyl)acrylamide]
IC50 ([3]; Homo sapiens, MV4-11, Table 5): 470 nM

IC50 [1]: 10 to 30 nM
SMILES: O=C(/C=C/c1ccc(CN(Cc2ccc(F)cc2)S(=O)(=O)c2c(F)c(F)c(F)c(F)c2F)cc1)NO [Compound I-59, (E)-N-hydroxy-3-(4-((2,3,4,5,6-pentafluoro-N-(4-fluorobenzyl)phenylsulfonamido)methyl)phenyl)acrylamide]
IC50 ([3]; Homo sapiens, MV4-11, Table 5): 590 nM

IC50 [1]: 10 to 30 nM
SMILES: O=C(/C=C/c1ccc(CN(c2ccccc2)S(=O)(=O)c2cc(F)c(F)c(F)c2F)cc1)NO [Compound I-66, (E)-N-hydroxy-3-(4-((2,3,4,5-tetrafluoro-N-phenylphenylsulfonamido)methyl)phenyl)acrylamide]
IC50 ([3]; Homo sapiens, MV4-11, Table 5): 840 nM

SMILES: O=C(NO)c1ccc(CN(Cc2ccccn2)S(=O)(=O)c2cc(F)c(F)c(F)c2F)cc1 [Compound I-20, N-hydroxy-4-((2,3,4,5-tetrafluoro-N-(pyridin-2-ylmethyl)phenylsulfonamido)methyl)benzamide]
IC50 ([3]; Homo sapiens, MV4-11, Table 4): 480 nM

SMILES: O=C(NO)c1ccc(CN(Cc2cc(F)c(F)c(F)c2)S(=O)(=O)c2c(F)c(F)c(F)c(F)c2F)cc1 [Compound I-11, N-hydroxy-4-((2,3,4,5,6-pentafluoro-N-(3,4,5-trifluorobenzyl)phenylsulfonamido)methyl)benzamide]
IC50 ([2]; Table 4): 3500 nM

IC50 [1]: 10 to 30 nM
SMILES: O=C(/C=C/c1ccc(CNC(=O)c2cc(F)c(F)c(F)c2F)cc1)NO [Compound I-82, (E)-2,3,4,5-tetrafluoro-N-(4-(3-(hydroxyamino)-3-oxoprop-1-en-1-yl)benzyl)benzamide]
IC50 ([3]; Homo sapiens, MV4-11, Table 5): 590 nM

half-life [4]: 2.35 h
Remaining Percentage (%) 0 min [4]: 100%
Remaining Percentage (%) 15 min [4]: 88.6%
Remaining Percentage (%) 30 min [4]: 78.8%
Remaining Percentage (%) 45 min [4]: 75.0%
Remaining Percentage (%) 60 min [4]: 72.1%
Remaining Percentage (%) 120 min [4]: 53.8%
SMILES: O=C(/C=C/c1cccc(S(=O)(=O)Nc2ccccc2)c1)NO [Belinostat]

SMILES: O=C(/C=C/c1ccc(CN(Cc2ccc(F)cc2)S(=O)(=O)c2cc(F)c(F)c(F)c2F)cc1)NO [Compound I-68]
IC50 ([3]; Homo sapiens, MV4-11, Table 5): 800 nM

SMILES: Cc1ccc(CN(Cc2ccc(CC(=O)NO)cc2)S(=O)(=O)c2cc(F)c(F)c(F)c2F)cc1F [Compound I-73]
IC50 ([3]; Homo sapiens, MV4-11, Table 5): 1090 nM

SMILES: CN(C)c1ccc(CN(Cc2ccc(/C=C/C(=O)NO)cc2)S(=O)(=O)c2cc(F)c(F)c(F)c2F)cc1 [Compound I-69]
IC50 ([3]; Homo sapiens, MV4-11, Table 5): 1600 nM
IC50 ([2]; Table 5): 1800 nM

SMILES: CN(Cc1ccc(C(=O)NO)cc1)S(=O)(=O)c1c(F)c(F)c(F)c(F)c1F [Compound I-2, N-hydroxy-4-((2,3,4,5,6-pentafluoro-N-methylphenylsulfonamido)methyl)benzamide]
IC50 ([3]; Homo sapiens, MV4-11, Table 4): 1040 nM

SMILES: O=C(Cc1ccc(CN(C2CCCCC2)S(=O)(=O)c2cc(F)c(F)c(F)c2F)cc1)NO [Compound I-72]
IC50 ([3]; Homo sapiens, MV4-11, Table 5): 570 nM

SMILES: Cc1ccc(CN(Cc2ccc(C(=O)NO)cc2)S(=O)(=O)c2cc(F)c(F)c(F)c2F)c(F)c1 [Compound I-26, N-hydroxy-4-((2,3,4,5-tetrafluoro-N-(2-fluoro-4-methylbenzyl)phenylsulfonamido)methyl)benzamide]
IC50 ([3]; Homo sapiens, MV4-11, Table 4): 1870 nM

SMILES: O=C(NO)c1ccc(CN(Cc2ccncc2F)S(=O)(=O)c2cc(F)c(F)c(F)c2F)cc1 [Compound I-28, N-hydroxy-4-((2,3,4,5-tetrafluoro-N-((3-fluoropyridin-4-yl)methyl)phenylsulfonamido)methyl)benzamide]
IC50 ([3]; Homo sapiens, MV4-11, Table 4): 596 nM
IC50 ([2]; Table 4): 663 nM

SMILES: O=C(/C=C/c1ccc(CN(Cc2ccccc2)S(=O)(=O)c2cc(F)c(F)c(F)c2F)cc1)NO [Compound I-67]
IC50 ([3]; Homo sapiens, MV4-11, Table 5): 1140 nM

IC50 [1]: 100 to 150 nM
SMILES: O=C(Cc1ccc(CN(C2CC2)S(=O)(=O)c2cc(F)c(F)c(F)c2F)cc1)NO [Compound I-71, 2-(4-((N-cyclopropyl-2,3,4,5-tetrafluorophenylsulfonamido)methyl)phenyl)-N-hydroxyacetamide]

SMILES: O=C(NO)c1ccc(CN(Cc2ccc(C(F)(F)F)cc2)S(=O)(=O)c2c(F)c(F)c(F)c(F)c2F)cc1 [Compound I-10, N-hydroxy-4-((2,3,4,5,6-pentafluoro-N-(4-(trifluoromethyl)benzyl)phenylsulfonamido)methyl)benzamide]
IC50 ([2]; Table 4): 9100 nM

SMILES: O=C(NO)c1ccc(CN(C2CC2)S(=O)(=O)c2c(F)c(F)cc(F)c2F)cc1 [Compound I-14, 4-((N-cyclopropyl-2,3,5,6-tetrafluorophenylsulfonamido)methyl)-N-hydroxybenzamide]
IC50 ([3]; Homo sapiens, MV4-11, Table 4): 5700 nM

SMILES: O=C(/C=C/c1ccc(CN(C(=O)c2c(F)c(F)c(F)c(F)c2F)C2CC2)cc1)NO [Compound I-83, (E)-N-cyclopropyl-2,3,4,5,6-pentafluoro-N-(4-(3-(hydroxyamino)-3-oxoprop-1-en-1-yl)benzyl)benzamide]
IC50 ([3]; Homo sapiens, MV4-11, Table 5): 750 nM

SMILES: O=C(NO)c1ccc(CN(Cc2ccccc2)S(=O)(=O)c2cc(F)c(F)c(F)c2F)cc1 [Compound I-16, 4-((N-benzyl-2,3,4,5-tetrafluorophenylsulfonamido)methyl)-N-hydroxybenzamide]
IC50 ([3]; Homo sapiens, MV4-11, Table 4): 190 nM

IC50 [1]: 150 to 200 nM
SMILES: O=C(/C=C/c1ccc(CN(C2CCCC2)S(=O)(=O)c2cc(F)c(F)c(F)c2F)cc1)NO [Compound I-65, (E)-3-(4-((N-cyclopentyl-2,3,4,5-tetrafluorophenylsulfonamido)methyl)phenyl)-N-hydroxyacrylamide]
IC50 ([3]; Homo sapiens, MV4-11, Table 5): 2430 nM
IC50 ([3]; Table 5): 1940 nM

SMILES: O=C(NO)c1ccc(CN(Cc2ccc(F)nc2)S(=O)(=O)c2cc(F)c(F)c(F)c2F)cc1 [Compound I-27, N-hydroxy-4-((2,3,4,5-tetrafluoro-N-((6-fluoropyridin-3-yl)methyl)phenylsulfonamido)methyl)benzamide]
IC50 ([3]; Homo sapiens, MV4-11, Table 4): 843 nM

SMILES: COc1cc(/C=C/C(=O)NO)ccc1CN(Cc1cccnc1)S(=O)(=O)c1cc(F)c(F)c(F)c1F [Compound I-78]
IC50 ([3]; Homo sapiens, MV4-11, Table 5): 1300 nM
IC50 ([2]; Table 5): 2900 nM

half-life [4]: 1.98 h
Remaining Percentage (%) 0 min [4]: 100%
Remaining Percentage (%) 15 min [4]: 98.6%
Remaining Percentage (%) 30 min [4]: 89.0%
Remaining Percentage (%) 45 min [4]: 74.9%
Remaining Percentage (%) 60 min [4]: 68.4%
Remaining Percentage (%) 120 min [4]: 52.1%
SMILES: O=C(CCCCCCC(=O)Nc1ccccc1)NO [Vorinostat]

SMILES: O=C(NO)c1ccc(CN(C2CC2)S(=O)(=O)c2c(F)cc(F)c(Cl)c2F)cc1 [Compound I-42, 4-((3-chloro-N-cyclopropyl-2,4,6-trifluorophenylsulfonamido)methyl)-N-hydroxybenzamide]
IC50 ([3]; Homo sapiens, MV4-11, Table 4): 741 nM

IC50 [1]: 30 to 50 nM
SMILES: COc1ccc(CN(Cc2ccc(/C=C/C(=O)NO)cc2)S(=O)(=O)c2c(F)c(F)c(F)c(F)c2F)cc1 [Compound I-61, (E)-N-hydroxy-3-(4-((2,3,4,5,6-pentafluoro-N-(4-methoxybenzyl)phenylsulfonamido)methyl)phenyl)acrylamide]
